By IC50 is commonly meant the concentration needed to halve the response being measured.

Molecules are shown by their SMILES. Like-named read-outs stand apart in the source and are kept apart here.

Experiment [1] concerns ovariectomized Sprague-Dawley rats. As to the kind of experiment: Bone mineral density in the ovariectomized rat (pQCT, proximal tibia). In kind it is in vivo. As to conditions: 17β-estradiol 2 μg/rat s.c.; 5 weeks.
A further experiment has as its target T1, human ERα (Homo sapiens, UniProt P03372).
T1 construct: These templates contained amino acids M250-V595 of human ERα; His (N); Flag (C); made in house; host or cells: E. coli BL21 (DE3), clarified lysate
T1 sequence (P03372 250-595): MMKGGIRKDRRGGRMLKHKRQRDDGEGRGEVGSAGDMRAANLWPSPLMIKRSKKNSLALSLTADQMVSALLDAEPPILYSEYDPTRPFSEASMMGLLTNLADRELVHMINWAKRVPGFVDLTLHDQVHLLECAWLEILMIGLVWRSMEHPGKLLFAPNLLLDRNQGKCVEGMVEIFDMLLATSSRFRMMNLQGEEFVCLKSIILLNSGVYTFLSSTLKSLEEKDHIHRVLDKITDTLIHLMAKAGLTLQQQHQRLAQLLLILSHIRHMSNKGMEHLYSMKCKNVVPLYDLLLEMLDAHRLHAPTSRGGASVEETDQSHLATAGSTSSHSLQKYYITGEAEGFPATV
The experiment is described as follows: ER radioligand binding competition, ERα.

A further experiment has as its target T2, human ERβ (Homo sapiens, UniProt Q92731).
T2 construct: Flag (C); made in house; host or cells: E. coli BL21 (DE3), clarified lysate
As to the kind of experiment: ER radioligand binding competition, ERβ.

The next experiment deals with Lewis rats. The experiment is described as follows: Lewis rat adjuvant-induced arthritis, treatment protocol: joint score (maximal score per day 12). In kind it is in vivo. The settings on record: s.c. daily, begun Day 8 after adjuvant.
Experiment [2] relates to Sexually immature 129 SvE mice. As to the kind of experiment: Mouse uterotrophic test procedure (Procedure 2). It counts as in vivo. As to conditions: compound 50 mg/kg s.c., days 22-25.
Setting [3] is: competition with [3H]-17β-estradiol, read-out: ER-α IC50.

T2 sequence (Q92731 214-530): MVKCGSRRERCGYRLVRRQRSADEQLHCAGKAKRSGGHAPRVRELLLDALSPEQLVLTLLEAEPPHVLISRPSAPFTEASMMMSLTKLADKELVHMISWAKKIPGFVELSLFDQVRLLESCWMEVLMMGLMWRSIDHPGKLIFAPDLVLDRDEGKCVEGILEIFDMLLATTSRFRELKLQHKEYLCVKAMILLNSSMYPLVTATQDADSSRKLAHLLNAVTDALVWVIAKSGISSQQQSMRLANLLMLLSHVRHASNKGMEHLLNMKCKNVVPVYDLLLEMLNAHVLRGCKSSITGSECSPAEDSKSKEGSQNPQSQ

Regarding `C[C@]12CC[C@@H]3c4ccc(O)cc4CC[C@H]3[C@@H]1CC[C@@H]2O` [17β-estradiol, reference compound], in experiment [1], the “Total Bone Mineral Density (mean ± SEM)” value was determined as 639.49 ± 14.47 mg/mL and the “Trabecular Bone Mineral Density (mean ± SEM)” value was 453.28 ± 24.93 mg/mL.
`Oc1ccc(O)c(-c2nc3cc(O)ccc3o2)c1` [Example 1, 2-(5-HYDROXY-1,3-BENZOXAZOL-2-YL) BENZENE-1,4-DIOL]: the IC50 at human ERα (setting [3]) stood at 720 nM; at human ERβ, 140 nM.
For the compound `Oc1ccc2nc(-c3ccc(O)c(F)c3)oc2c1` [Example 6, 2-(3-FLUORO-4-HYDROXYPHENYL)-1,3-BENZOXAZOL-6-OL], the IC50 at human ERα worked out at 843 nM.
`Oc1ccc(O)c(-c2nc3ccc(O)cc3o2)c1` [Example 8, 2-(6-HYDROXY-1,3-BENZOXAZOL-2-YL)BENZENE-1,4-DIOL]: the 50% inhibitory concentration (IC50) came out at 2350 nM on human ERα (setting [3]) and 181 nM at human ERβ.
On human ERα, `Oc1ccc2nc(-c3cccc(O)c3O)oc2c1` [Example 9, 3-(6-HYDROXY-1,3-BENZOXAZOL-2-YL)BENZENE-1,2-DIOL] showed an IC50 of 1500 nM.
Take `Oc1cc(Br)c2oc(-c3ccc(O)c(F)c3F)nc2c1` [Example 23, 7-BROMO-2-(2,3-DIFLUORO-4-HYDROXYPHENYL)-1,3-BENZOXAZOL-5-OL]: the half-inhibitory concentration (IC50) on human ERα (setting [3]) stood at 113 nM; on human ERβ, 3 nM.
For the compound `C=Cc1cc(O)cc2nc(-c3ccc(O)cc3)oc12` [Example 27, 2-(4-HYDROXYPHENYL)-7-VINYL-1,3-BENZOXAZOL-5-OL], the 50% inhibitory concentration (IC50) at human ERα was 409 nM. Also, the Joint inflammation score in the experiment with Lewis rats (table Day 1) was 11.33; in the experiment on Lewis rats (table Day 2), 11.15; with Lewis rats (table Day 3), 11.33; with Lewis rats (table Day 4), 9.83; with Lewis rats (table Day 5), 8.83; in the experiment on Lewis rats (table Day 6) it was 7.83. Also, the Joint inflammation score in the experiment on Lewis rats (table Day 7) was 6.16; in the experiment with Lewis rats (table Day 8) it was 5.00; with Lewis rats (table Day 9), 4.33; in the experiment on Lewis rats (table Day 10) it was 2.66; in the experiment on Lewis rats (table Day 11), 1.83; in the experiment on Lewis rats (table Day 12), 1.83. Moreover, the Joint inflammation score stood at 2.66 in the experiment on Lewis rats (table Day 13); 2.66 in the experiment with Lewis rats (table Day 14); 2.00 with Lewis rats (table Day 15); 2.00 with Lewis rats (table Day 16); 1.50 with Lewis rats (table Day 17).
Turning to `Oc1ccc(-c2nc3cc(O)cc(C(Br)CBr)c3o2)cc1` (stereo not drawn) [Example 30, 7-(1,2-DIBROMOETHYL)-2-(4-HYDROXYPHENYL)-1,3-BENZOXAZOL-5-OL], the IC50 on human ERα (setting [3]) came to 3080 nM; at human ERβ it was 134 nM.
For `C=C(Br)c1cc(O)cc2nc(-c3ccc(O)cc3)oc12` [Example 31, 7-(1-BROMOVINYL)-2-(4-HYDROXYPHENYL)-1,3-BENZOXAZOL-5-OL], the IC50 on human ERα (setting [3]) amounted to 352 nM; on human ERβ, 31 nM.
Turning to `C=C(Br)c1cc(O)cc2nc(-c3ccc(O)cc3F)oc12` [Example 32, 7-(1-BROMOVINYL)-2-(2-FLUORO-4-HYDROXYPHENYL)-1,3-BENZOXAZOL-5-OL], the figures for the concentration for half-maximal inhibition (IC50) on human ERα (setting [3]) and at human ERβ were 196 nM and 16 nM, respectively. Moreover, the Joint inflammation score in the experiment on Lewis rats (table Day 1) was determined as 11.33; with Lewis rats (table Day 2), 10.83; with Lewis rats (table Day 3), 9.33; in the experiment with Lewis rats (table Day 4) it was 8.00; with Lewis rats (table Day 5) it was 5.83; in the experiment with Lewis rats (table Day 6), 3.33. The Joint inflammation score in the experiment with Lewis rats (table Day 7) is given as 3.00; with Lewis rats (table Day 8), 2.50; in the experiment on Lewis rats (table Day 9), 2.50; in the experiment with Lewis rats (table Day 10), 2.50; in the experiment with Lewis rats (table Day 11) it was 2.50; with Lewis rats (table Day 12) it was 2.50. The Joint inflammation score was found to be 2.50 with Lewis rats (table Day 13); 2.50 in the experiment on Lewis rats (table Day 14); 2.00 in the experiment on Lewis rats (table Day 15); 1.33 with Lewis rats (table Day 16); 1.00 in the experiment with Lewis rats (table Day 17).
Consider `C=C(Br)c1cc(O)cc2nc(-c3ccc(O)c(F)c3F)oc12` [Example 33, 7-(1-BROMOVINYL)-2-(2,3-DIFLUORO-4-HYDROXYPHENYL)-1,3-BENZOXAZOL-5-OL], for which the IC50 at human ERα (setting [3]) worked out at 352 nM; at human ERβ it was 31 nM.
In the case of `NC(=O)c1cc(O)cc2nc(-c3ccc(O)cc3)oc12` [Example 42, 5-HYDROXY-2-(4-HYDROXYPHENYL)-1,3-BENZOXAZOL-7-CARBOXAMIDE], the “mean uterine weight ± SEM” value in experiment [2] was determined as 9.5 ± 0.6 mg.
With `CCc1cc(O)ccc1-c1nc2cc(O)cc(CC)c2o1` [Example 45, 7-ETHYL-2-(2-ETHYL-4-HYDROXYPHENYL)-1,3-BENZOXAZOL-5-OL], the IC50 at human ERα (setting [3]) was 655 nM; at human ERβ it was 84 nM.
Taken in the same sequence, the figures for `CC(C)(O)c1cc(O)cc2nc(-c3ccc(O)cc3)oc12` [Example 50] were more than 5000 nM and 399 nM.
The matching figures for `C=C(C)c1cc(O)cc2nc(-c3ccc(O)cc3)oc12` [Example 51, 2-(4-HYDROXYPHENYL)-7-ISOPROPENYL-1,3-BENZOXAZOL-5-OL]: 775 nM and 142 nM.
The matching figures for `COc1cc(O)c(Br)c2nc(-c3ccc(O)cc3)oc12` [Example 59, 4-BROMO-2-(4-HYDROXYPHENYL)-7-METHOXY-1,3-BENZOXAZOL-5-OL]: 2670 nM and 52 nM.
Take `COc1c(Br)c(O)c(Br)c2nc(-c3ccc(O)cc3)oc12` [Example 60, 4,6-DIBROMO-2-(4-HYDROXYPHENYL)-7-METHOXY-1,3-BENZOXAZOL-5-OL]: the 50% inhibitory concentration (IC50) on human ERα (setting [3]) was found to be 559 nM; at human ERβ it was 64 nM.
In the case of `Oc1cc(Br)c2oc(-c3cc(F)c(O)c(F)c3)nc2c1` [Example 61, 7-BROMO-2-(3,5-DIFLUORO-4-HYDROXYPHENYL)-1,3-BENZOXAZOL-5-OL], the IC50 on human ERα (setting [3]) came out at 1180 nM; on human ERβ, 93 nM.

The values are drawn from patent publication US20060046968A1, “Prodrug substituted benzoxazoles as estrogenic agents” (priority 2004, published 2006).
